Earlier results as cited in patent US20070066584A1, “Amido compounds and their use as pharmaceuticals” (priority 2005, published 2007).

Biological target: T1, 11βHSD1 (Homo sapiens, UniProt P28845)
T1 construct: host or cells: healthy volunteers (eye; non-pigmented epithelial cells), in vivo
Conditions: healthy volunteers; after seven days of carbenoxolone treatment

T1 sequence (P28845 whole entry): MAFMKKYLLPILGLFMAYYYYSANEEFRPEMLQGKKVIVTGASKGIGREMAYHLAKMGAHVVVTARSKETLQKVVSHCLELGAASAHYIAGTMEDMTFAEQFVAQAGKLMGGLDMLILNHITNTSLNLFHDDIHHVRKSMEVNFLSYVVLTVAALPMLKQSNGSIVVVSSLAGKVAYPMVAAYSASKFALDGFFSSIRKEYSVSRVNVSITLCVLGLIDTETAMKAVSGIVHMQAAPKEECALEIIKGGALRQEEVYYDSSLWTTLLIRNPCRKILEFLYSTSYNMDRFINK

IOP reduced: 18%
SMILES: CC1(C)[C@@H](OC(=O)CCC(=O)O)CC[C@]2(C)[C@H]3C(=O)C=C4[C@@H]5C[C@@](C)(C(=O)O)CC[C@]5(C)CC[C@@]4(C)[C@]3(C)CC[C@@H]12 [carbenoxolone]
